# Measured values reported in patent US9227977B2, “Phosphoinositide 3-kinase inhibitors” (RESPIVERT LTD., priority 2013, dated 2016).
# Read-outs that look alike come from different tables or passages of the source.
# How the values were obtained:
# PI3K γ = PI3K γ (Homo sapiens (Human), UniProt P48736); assay: PI3K enzyme inhibition assay (HTRF TR-FRET); assay type: biochemical
# Excerpt: The PI3K enzymes catalyse the phosphorylation of phosphatidylinositol 4,5-biphosphate (PIP2) to phosphatidylinositol 3,4,5-triphosphate (PIP3) in the presence of ATP and Mg^2+ ions. The PIP3 product can be detected by displacement of biotin-PIP3 from energy transfer complexes consisting of europium labelled anti-GST monoclonal antibody, a GST-tagged Pleckstrin homology (PH) domain, biotinylated PIP3 and streptavidin-allophycocyanin (APC) by the time-resolved fluorescence resonance energy transfer (TR-FRET) (HTRF®PI3K enzyme assay, Millipore). Excitation, at 330 nm, of europium in the complex results in an energy transfer to the APC and a fluorescent emission at 665 nm although europium itself emits at its characteristic wavelength of 620 nm. The PIP3 product formed by PI3K activity displaces biotin-PIP3 from the complex and results in a loss of energy transfer (decreasing signal).
# The compound to be tested was added, at the desired final concentrations, to a mixture of PIP2 substrate and a recombinant PI3K enzyme (either α, β or δ isoforms, ex Millipore, or γ isoform [p110γ+p101 construct], ex United States Biological, Swampscott, Mass.) and the mixture incubated for 2 hr at RT. […] A stopping solution containing biotinylated PIP3 and the detection mix containing the GST tagged GRP1 pleckstrin homology (PH) domain and fluorophores were then added and the mixture was incubated at RT for 15-18 hr, prior to detection in a fluorescence microplate reader (Synergy 4, BioTek UK, Bedfordshire, UK).
# The results were calculated according to the formula: APC signal (emission at 665 nm)/europium signal (emission at 620 nm)×10^4.
# [1] = test system: LPS-induced airway neutrophilia in rats; assay: LPS-induced airway neutrophil accumulation in rats; assay type: in vivo, rat; conditions: i-t; for Neutrophil numbers in BALF: mean ± SEM
# Experimental: Non-fasted rats were dosed with either vehicle or the test compound by intra-tracheal administration (dose volume 100 μL) at time points T=−2 h, −8 h, or −12 h with respect to the start of LPS treatment. The LPS solution (0.3 mg/mL) was aerosolised using a De Vibliss ultrasonic nebuliser 2000 (7 mL during 30 min). At eight hr after LPS challenge, the trachea was cannulated and bronchoalveolar lavage fluid (BALF) extracted by infusing and then withdrawing PBS (1 mL) into the lungs via the tracheal catheter. This procedure was repeated to provide approximately 2 mL of lavage fluid.
# Total cell numbers in the BALF samples were measured using a Countess automated cell counter (Invitrogen). Cytospin smears of the BALF samples were prepared by centrifugation at 1200 rpm for 2 min at RT and stained using a DiffQuik stain system (Dade Behring) for differential cell counts. Cells were counted using oil immersion microscopy. Data are expressed as neutrophil number of cells per mL of BALF (mean±S.E.M).
# [2] = test system: ovalbumin-induced airway eosinophilia and neutrophilia in mice; assay: Ovalbumin-induced airway eosinophil and neutrophil accumulation in mice; assay type: in vivo, mouse; conditions: OVA-sensitized mice, i-t; for Cell numbers in BALF, Eosinophils / Cell numbers in BALF, Neutrophils: mean ± SEM
# Experimental: BALB/c mice (6-8 weeks old) were immunized with OVA (10 μg/mouse i.p.) on days 0 and 7. In order to elicit a local inflammatory response in the lung, mice were repeatedly challenged between days 13-15 with a nebulised solution of ovalbumin (10 mg/mL, 30 min exposure, De Vilibiss Ultraneb 2000). On day 17 each animal received via intra-tracheal administration of either vehicle or test compound 2 hr prior to the final OVA challenge. Animals were anaesthetized 8 hr later before undergoing a tracheotomy. BAL was obtained by instilling PBS (1 mL) into the lungs, which was then withdrawn. This procedure was repeated to provide approximately 2 mL of lavage fluid. Total cell numbers in the BALF samples were measured using a haemocytometer. Cytospin smears of the BALF samples were prepared by centrifugation at 200 rpm for 5 min at RT and stained using a DiffQuik stain system (Dade Behring) for differential cell counts. Cells were counted using oil immersion microscopy. Data is expressed as differential number of cells per mL of […] (mean±S.E.M).
# [3] = test system: poly-I:C-induced cell accumulation in mice airways; assay: Poly-I:C-induced cell accumulation in mice; assay type: in vivo, mouse; conditions: for % inhibition, Macrophages in BALF / % inhibition, Neutrophils in BALF / Cell numbers in BALF, Macrophages / Cell numbers in BALF, Neutrophils: mice, poly I:C, intra-nasal; for Cell numbers in BALF, Macrophages / Cell numbers in BALF, Neutrophils: mean ± SEM
# Experimental: Specific pathogen-free A/J mice (males, 5 weeks old) were dosed with poly (I:C)-LMW (1 mg/mL, 40 μL) (InvivoGen, San Diego, Calif., USA) intranasally twice daily for 3 days under anaesthasia (3% isoflurane). Test substances were dosed intra-nasally (50 μL in 10% DMSO/isotonic saline vehicle) 2 hr before each poly-I:C treatment. At 24 hr after the last poly-I:C challenge, animals were anesthetized, the trachea was cannulated and bronchial alveolar lavage (BAL) was obtained by instilling into and then withdrawing from the lungs, isotonic saline (100 mL/kg). Total cell numbers in the BALF samples were measured using a haemocytometer under a phase-contrast microscope.
# The proportions of alveolar macrophages and neutrophils were determined by FACS analysis using anti-mouse MOMA2-FITC (macrophage) or anti-mouse 7/4-FITC (neutrophil). Cells were suspended in PBS and incubated with anti-MOMA2-FITC (2 μg/mL, Catalogue no SM065F, Acris Antibodies GmbH, Herford, Germany) or anti-7/4-FITC (2 μg/mL, Catalogue no CL050F, Acris Antibodies GmbH, Herford, Germany) for 30 min at 30° C., and then counterstained with propidium iodide (2 μg/mL) to allow exclusion of necrotic cells. The cells were washed with PBS, and transferred to FACS tubes. Samples was set in a flow cytometer (ALTRA II; Beckman Coulter Japan, Tokyo, Japan), and a single-parameter FL2 [PMT2] (FITC) histogram with log x-axis was plotted to illustrate relative intensity of FITC, Data files were stored for subsequent analysis using Kaluza analysis software (ver. 1.2) to calculate the proportion of each cell type.
# Chain of PI3K γ (P48736 whole entry, species assumed): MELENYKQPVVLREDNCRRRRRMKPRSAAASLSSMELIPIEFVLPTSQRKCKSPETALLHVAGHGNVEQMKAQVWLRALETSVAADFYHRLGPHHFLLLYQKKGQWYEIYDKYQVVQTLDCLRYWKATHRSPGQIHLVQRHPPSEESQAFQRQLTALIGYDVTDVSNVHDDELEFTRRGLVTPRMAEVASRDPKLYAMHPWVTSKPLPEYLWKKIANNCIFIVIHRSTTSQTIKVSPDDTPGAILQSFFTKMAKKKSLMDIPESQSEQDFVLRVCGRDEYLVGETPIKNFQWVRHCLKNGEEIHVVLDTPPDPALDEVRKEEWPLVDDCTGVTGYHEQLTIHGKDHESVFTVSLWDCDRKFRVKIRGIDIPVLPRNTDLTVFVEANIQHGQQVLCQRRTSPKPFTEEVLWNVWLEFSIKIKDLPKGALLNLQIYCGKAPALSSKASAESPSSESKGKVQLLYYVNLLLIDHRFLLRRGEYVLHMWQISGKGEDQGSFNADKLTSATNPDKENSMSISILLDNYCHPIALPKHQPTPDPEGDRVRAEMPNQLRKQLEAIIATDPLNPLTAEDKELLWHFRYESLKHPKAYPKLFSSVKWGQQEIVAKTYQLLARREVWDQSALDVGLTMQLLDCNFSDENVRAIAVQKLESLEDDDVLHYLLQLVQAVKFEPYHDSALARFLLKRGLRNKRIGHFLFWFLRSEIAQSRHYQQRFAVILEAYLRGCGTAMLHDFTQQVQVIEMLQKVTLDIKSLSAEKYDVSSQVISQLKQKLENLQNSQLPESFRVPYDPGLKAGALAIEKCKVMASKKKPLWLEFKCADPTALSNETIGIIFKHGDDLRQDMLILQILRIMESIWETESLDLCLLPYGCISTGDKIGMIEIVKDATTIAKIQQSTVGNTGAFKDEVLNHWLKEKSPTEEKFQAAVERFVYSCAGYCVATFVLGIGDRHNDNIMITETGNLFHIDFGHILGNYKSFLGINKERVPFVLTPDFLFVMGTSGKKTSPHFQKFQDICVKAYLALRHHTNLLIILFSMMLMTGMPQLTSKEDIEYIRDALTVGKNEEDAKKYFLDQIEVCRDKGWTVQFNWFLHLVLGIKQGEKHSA
# Chain of PI3K γ (Q8WYR1 whole entry partner, species assumed): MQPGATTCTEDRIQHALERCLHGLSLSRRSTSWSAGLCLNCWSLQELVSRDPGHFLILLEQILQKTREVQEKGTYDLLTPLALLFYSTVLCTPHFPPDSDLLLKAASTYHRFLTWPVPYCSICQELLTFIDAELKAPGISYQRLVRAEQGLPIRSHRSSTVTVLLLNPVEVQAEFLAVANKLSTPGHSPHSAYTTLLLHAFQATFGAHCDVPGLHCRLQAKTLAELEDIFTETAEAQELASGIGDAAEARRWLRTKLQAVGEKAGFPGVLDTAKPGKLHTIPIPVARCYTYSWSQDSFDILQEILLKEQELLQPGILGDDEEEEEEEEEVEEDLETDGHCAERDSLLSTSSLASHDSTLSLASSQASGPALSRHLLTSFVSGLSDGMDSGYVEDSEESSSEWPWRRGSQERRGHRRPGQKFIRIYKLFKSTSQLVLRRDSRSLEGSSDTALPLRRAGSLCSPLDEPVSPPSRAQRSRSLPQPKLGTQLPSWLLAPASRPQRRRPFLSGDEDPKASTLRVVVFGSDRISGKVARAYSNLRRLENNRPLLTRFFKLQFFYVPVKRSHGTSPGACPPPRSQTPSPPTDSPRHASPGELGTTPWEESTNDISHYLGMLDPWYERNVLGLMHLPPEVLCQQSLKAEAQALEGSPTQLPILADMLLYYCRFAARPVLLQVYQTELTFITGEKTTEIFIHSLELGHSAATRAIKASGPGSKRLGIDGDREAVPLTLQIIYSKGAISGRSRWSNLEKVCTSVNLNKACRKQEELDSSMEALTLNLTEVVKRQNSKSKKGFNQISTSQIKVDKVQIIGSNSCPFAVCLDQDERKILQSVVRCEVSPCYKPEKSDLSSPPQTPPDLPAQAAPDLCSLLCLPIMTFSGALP
compound,measurement,setting,value
"COCCOCCOCC#Cc1cccc2nc(Cn3nc(-c4cc(O)cc(F)c4)c4c(N)ncnc43)n(Cc3ccccc3C(F)(F)F)c(=O)c12 [Compound (I), 2-((4-Amino-3-(3-fluoro-5-hydroxyphenyl)-1H-pyrazolo[3,4-d]pyrimidin-1-yl)methyl)-5-(3-(2-(2-methoxyethoxy)ethoxy)prop-1-yn-1-yl)-3-(2-(trifluoromethyl)benzyl)quinazolin-4(3H)-one]",IC50,"PI3K γ; read-out: IC50 Values for PI3K inhibition at isozyme indicated, PI3K γ",28 nM
same,IC50,"PI3K γ; read-out: PI3 Kinase Inhibition IC50 value at state isozyme, γ",28 nM
same,% inhibition of neutrophil numbers in BALF,"[1]; 0.05 mg/mL, pre-dose 2 hr",9%
same,Neutrophil numbers in BALF,"[1]; 0.05 mg/mL, pre-dose 2 hr",13.2 ± 2.3 x10^5/mL
same,% inhibition of neutrophil numbers in BALF,"[1]; 0.2 mg/mL, pre-dose 2 hr",58%
same,Neutrophil numbers in BALF,"[1]; 0.2 mg/mL, pre-dose 2 hr",6.3 ± 1.6 x10^5/mL
same,% inhibition of neutrophil numbers in BALF,"[1]; 0.2 mg/mL, pre-dose 8 hr",33%
same,Neutrophil numbers in BALF,"[1]; 0.2 mg/mL, pre-dose 8 hr",10.1 ± 1.8 x10^5/mL
same,% inhibition of neutrophil numbers in BALF,"[1]; 0.2 mg/mL, pre-dose 12 h",10%
same,Neutrophil numbers in BALF,"[1]; 0.2 mg/mL, pre-dose 12 h",13.6 ± 2.7 x10^5/mL
same,% inhibition of neutrophil numbers in BALF,"[1]; 1.0 mg/mL, pre-dose 2 hr",73%
same,Neutrophil numbers in BALF,"[1]; 1.0 mg/mL, pre-dose 2 hr",4.1 ± 0.7 x10^5/mL
same,"% inhibition, Eosinophils in BALF",[2]; 0.05 mg/mL,20%
same,"% inhibition, Neutrophils in BALF",[2]; 0.05 mg/mL,18%
same,"Cell numbers in BALF, Eosinophils",[2]; 0.05 mg/mL,19.7 ± 3.2 x10^4/mL
same,"Cell numbers in BALF, Neutrophils",[2]; 0.05 mg/mL,8.0 ± 0.4 x10^4/mL
same,"% inhibition, Eosinophils in BALF",[2]; 0.2 mg/mL,85%
same,"% inhibition, Neutrophils in BALF",[2]; 0.2 mg/mL,70%
same,"Cell numbers in BALF, Eosinophils",[2]; 0.2 mg/mL,3.8 ± 0.9 x10^4/mL
same,"Cell numbers in BALF, Neutrophils",[2]; 0.2 mg/mL,2.9 ± 0.5 x10^4/mL
same,"% inhibition, Eosinophils in BALF",[2]; 1 mg/mL,91%
same,"% inhibition, Neutrophils in BALF",[2]; 1 mg/mL,80%
same,"Cell numbers in BALF, Eosinophils",[2]; 1 mg/mL,2.1 ± 0.4 x10^4/mL
same,"Cell numbers in BALF, Neutrophils",[2]; 1 mg/mL,2.0 ± 0.3 x10^4/mL
same,potency versus compound A on poly-I:C-induced cell accumulation (in words),[3]; direct comparison,significantly greater potency than compound A
same,"% inhibition, Macrophages in BALF",[3]; 0.002 mg/mL,49%
same,"% inhibition, Neutrophils in BALF",[3]; 0.002 mg/mL,43%
same,"Cell numbers in BALF, Macrophages",[3]; 0.002 mg/mL,11.5 ± 0.2 x10^4/mL
same,"Cell numbers in BALF, Neutrophils",[3]; 0.002 mg/mL,7.3 ± 0.3 x10^4/mL
same,"% inhibition, Macrophages in BALF",[3]; 0.02 mg/mL,69%
same,"% inhibition, Neutrophils in BALF",[3]; 0.02 mg/mL,65%
same,"Cell numbers in BALF, Macrophages",[3]; 0.02 mg/mL,8.3 ± 0.3 x10^4/mL
same,"Cell numbers in BALF, Neutrophils",[3]; 0.02 mg/mL,5.0 ± 0.2 x10^4/mL
same,"% inhibition, Macrophages in BALF",[3]; 0.2 mg/mL,79%
same,"% inhibition, Neutrophils in BALF",[3]; 0.2 mg/mL,77%
same,"Cell numbers in BALF, Macrophages",[3]; 0.2 mg/mL,6.8 ± 0.3 x10^4/mL
same,"Cell numbers in BALF, Neutrophils",[3]; 0.2 mg/mL,3.8 ± 0.2 x10^4/mL
